“Also recorded” adds a separate entry of the source. Like-named read-outs stand apart in the source and are kept apart here. Where a SMILES comes first, the peptide text is derived from it. Bridges are numbered along the chain shown (N, C = ends).
Key:
Format in all cases: cell-based
hKv1.2 = biological target: T1, hKv1.2 (Homo sapiens, UniProt P16389); assay: Whole-cell patch-clamp of Kv1.2 currents in transiently transfected CHO cells
T1 construct: GFP (C); host or cells: CHO cells, transient transfection (Lipofectamine 2000)
T1 sequence (P16389 whole entry): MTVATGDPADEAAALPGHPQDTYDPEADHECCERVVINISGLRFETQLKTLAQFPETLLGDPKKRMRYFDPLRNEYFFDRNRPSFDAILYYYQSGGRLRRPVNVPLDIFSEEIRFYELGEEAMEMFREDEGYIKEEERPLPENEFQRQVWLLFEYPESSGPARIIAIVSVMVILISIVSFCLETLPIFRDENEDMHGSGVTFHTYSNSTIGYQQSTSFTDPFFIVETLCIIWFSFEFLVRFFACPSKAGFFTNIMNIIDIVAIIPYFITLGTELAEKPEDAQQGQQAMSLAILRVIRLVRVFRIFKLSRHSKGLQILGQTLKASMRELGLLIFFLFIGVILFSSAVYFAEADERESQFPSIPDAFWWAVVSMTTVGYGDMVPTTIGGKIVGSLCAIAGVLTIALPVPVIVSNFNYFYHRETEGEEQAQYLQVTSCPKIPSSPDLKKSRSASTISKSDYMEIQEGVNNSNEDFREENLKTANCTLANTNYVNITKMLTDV
Experimental: (§1) Macroscopic Kv1.1 and Kv1.2 currents were measured in transiently transfected CHO cells. For Kv1.3 current recording, human T lymphocytes were activated by Phytohemagglutinin A (PHA) to increase Kv1.3 channel expression, and micro-pipettes were filled with Ca^2+-free solution to prevent KCa3.1 channel activation. K^+ currents were evoked by applying 15-ms-long depolarization pulses to +50 mV from a holding potential of −120 mV except for Kv1.2, as it has highly variable activation kinetics; therefore, 15–500 ms-long pulses were applied to maximize the open probability of Kv1.2 channel. CboK peptide toxins were dissolved in a freshly prepared extracellular solution and applied to the whole-cell patch-clamped cells using a micro perfusion system at 200 μL/min flow rate.
(§2) CHO cells were transiently transfected by using Lipofectamine 2000 kit (Invitrogen, Carlsbad, CA, USA), as per the manufacturer’s protocol with vector pCMV6-AC-GFP (cat# RG211000 and RC222200; OriGene Technologies, Rockville, MD, USA) encoding hKv1.1 (hKCNA1 gene) or hKv1.2 (hKCNA2 gene) ion channels. Cells were grown under standard conditions in an incubator at 37 °C and 5% CO2 for 24 h. GFP-positive transfected cells were identified by utilizing a Nikon TMS fluorescence microscope (Nikon, Tokyo, Japan) using bandpass filters of 455–495 nm and 515–555 nm for excitation and emission, respectively.
(§3) The patch-clamp technique was used for measuring whole-cell currents in voltage-clamped mode using standard protocols. Electrophysiological recordings were acquired by using Multiclamp 700B amplifier connected to a personnel computer with an Axon Digidata1440 digitizer (Molecular Devices, Sunnyvale, CA, USA). Pipettes were pulled from GC150F-15 borosilicate capillaries (Harvard Apparatus, Kent, UK) having 3−5 MΩ tip resistance in the bath solution. All current recordings were carried out at room temperature (20−25 °C) and only those currents were recorded and subjected to analyses when the leak current at holding potential was <5% of peak current at the test potential. Current traces were lowpass-filtered by utilizing the built-in analog four-pole Bessel filters of the amplifiers and were sampled at 20 kHz which is at least twice the filter cut-off frequency. A gravity-driven perfusion system was used to perfuse the cells with control and test solutions and excess fluid was removed continuously through vacuum suction. The extracellular solution (bath solution) contained 145 mM NaCl, 5.5 mM glucose, 5 mM KCl, 2.5 mM CaCl2, 1 mM MgCl2, and 10 mM HEPES, having pH of 7.35 and an osmolarity between 302 and 308 mOsM/L. Toxins were dissolved in bath solution at different molar concentrations and supplemented with 0.1 mg/mL of bovine serum albumin BSA (Sigma-Aldrich, Budapest, Hungary). The intracellular solution (pipette filling) was comprised of 140 mM KF, 2 mM MgCl2, 1 mM CaCl2, 10 mM HEPES, and 11 mM EGTA, with a pH of 7.22 and an osmolarity of ~295 mOsM/L.
(§4) Generally, to evoke the Kv1.xcurrents, 15-ms-long depolarization pulses to +50 mV from a holding potential of −120 mV were applied, and the current traces were recorded after every 15 s. However, in the case of Kv1.2, due to its variable activation kinetics, the duration of the depolarization pulse was set between 15 and 500 ms to attain the saturated peak current.

Kv1.3 = biological target: T2, Kv1.3 (Homo sapiens, UniProt P22001); assay: Whole-cell patch-clamp of Kv1.3 currents in PHA-activated human T lymphocytes; conditions: for Hill coefficient H, Kv1.3 block: Hill fit of isochronal RCF (4 ms)
T2 construct: endogenous in cells
T2 sequence (P22001 whole entry): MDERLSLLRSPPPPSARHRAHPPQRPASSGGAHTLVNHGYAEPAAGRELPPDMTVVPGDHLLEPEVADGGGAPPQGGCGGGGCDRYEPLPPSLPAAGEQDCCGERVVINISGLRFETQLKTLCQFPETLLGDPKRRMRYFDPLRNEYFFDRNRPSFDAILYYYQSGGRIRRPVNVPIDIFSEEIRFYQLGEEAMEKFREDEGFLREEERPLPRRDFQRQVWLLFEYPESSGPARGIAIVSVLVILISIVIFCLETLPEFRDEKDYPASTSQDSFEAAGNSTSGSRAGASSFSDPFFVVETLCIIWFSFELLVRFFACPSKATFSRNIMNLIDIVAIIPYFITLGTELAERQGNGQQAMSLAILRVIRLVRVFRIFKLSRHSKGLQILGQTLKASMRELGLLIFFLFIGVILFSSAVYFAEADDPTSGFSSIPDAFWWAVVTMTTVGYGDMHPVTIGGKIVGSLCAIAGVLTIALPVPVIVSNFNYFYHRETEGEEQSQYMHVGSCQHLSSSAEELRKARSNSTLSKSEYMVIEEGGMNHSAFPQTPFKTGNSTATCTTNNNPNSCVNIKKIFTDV
Experimental: as §1
Isochronal RCF data points obtained this way (isochronal RCF = I4ms/I4ms,0 where I4ms,0 and I4ms are the currents at 4 ms time point in the absence and presence of CboK peptides, respectively) at different toxin concentrations were fitted with the Hill equation to obtain concentration–response curves as shown in Figure 6H.
Human peripheral venous blood was acquired from anonymous healthy volunteers from the blood bank. Blood samples were collected by having approval from the Ethical Committee of the Hungarian Medical Research Council (36255-6/2017/EKU). PBMCs were separated by Histopaque 1077 (Sigma-Aldrich, Budapest, Hungary) separation technique, and isolated cells, at the density of 5 × 10^5 cells, were cultured in RPMI 1640 media (Gibco, Grand Island, NY, USA) supplemented with 10% FBS (Sigma-Aldrich, Budapest, Hungary), 2 mM L-glutamine, […], and […] penicillin in a humidified incubator at 37 °C and 5% CO2 for 3–6 days. A measure of 2, 5, or 10 μg/mL of Phytohemagglutinin A (PHA) (Sigma-Aldrich, Budapest, Hungary) was added in cultured cells to activate the PBMCs and upregulate the Kv1.3 expression.
as §3, with “suction.” for “suction. The extracellular solution (bath solution) contained 145 mM NaCl, 5.5 mM glucose, 5 mM KCl, 2.5 mM CaCl2, 1 mM MgCl2, and 10 mM HEPES, having pH of 7.35 and an osmolarity between 302 and 308 mOsM/L. Toxins were dissolved in bath solution at different molar concentrations and supplemented with 0.1 mg/mL of bovine serum albumin BSA (Sigma-Aldrich, Budapest, Hungary). The intracellular solution (pipette filling) was comprised of 140 mM KF, 2 mM MgCl2, 1 mM CaCl2, 10 mM HEPES, and 11 mM EGTA, with a pH of 7.22 and an osmolarity of ~295 mOsM/L.”

hKv1.1 = biological target: T3, hKv1.1 (Homo sapiens, UniProt Q09470); assay: Whole-cell patch-clamp of Kv1.1 currents in transiently transfected CHO cells; conditions: for effect on Kv1.1 currents: 100 nM toxin; for Kd: this study, screened at 100 nM, read-out: Kd Values Kv1.1 (symbol)
T3 construct: host or cells: CHO cells, transient transfection (Lipofectamine 2000)
T3 sequence (Q09470 whole entry): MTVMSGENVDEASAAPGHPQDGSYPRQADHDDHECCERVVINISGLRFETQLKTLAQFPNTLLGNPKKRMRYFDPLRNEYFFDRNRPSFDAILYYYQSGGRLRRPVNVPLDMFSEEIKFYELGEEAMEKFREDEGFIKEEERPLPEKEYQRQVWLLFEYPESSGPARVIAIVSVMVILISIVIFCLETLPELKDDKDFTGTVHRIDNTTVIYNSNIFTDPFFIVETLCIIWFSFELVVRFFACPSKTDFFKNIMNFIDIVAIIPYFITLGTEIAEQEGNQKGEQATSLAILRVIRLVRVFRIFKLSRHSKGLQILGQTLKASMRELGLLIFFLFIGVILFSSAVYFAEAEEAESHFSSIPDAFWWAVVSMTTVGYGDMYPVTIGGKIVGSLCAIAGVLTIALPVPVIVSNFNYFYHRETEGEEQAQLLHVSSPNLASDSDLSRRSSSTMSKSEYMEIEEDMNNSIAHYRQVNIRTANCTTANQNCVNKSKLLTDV
Experimental: as §1, §2, §3, §4

[1] = Hill fit of RCF vs toxin concentration, n ≥ 3

SMILES	Hill coefficient H, Kv1.2 block (hKv1.2; [1])	Hill coefficient H, Kv1.3 block (Kv1.3; n ≥ 3)	effect on Kv1.1 currents (hKv1.1)	Kd (hKv1.1) [nM]	effect on Kv1.2 currents (hKv1.2; 100 nM toxin)	Kd (hKv1.2; this study, CboK1 tested at 100 nM, read-out: Kd Values Kv1.2 (symbol)) [nM]	effect on Kv1.3 currents (Kv1.3; 100 nM toxin)	inhibition of Kv1.3 currents (Kv1.3; 100 nM toxin, equilibrium block, screening summary (Figure 4F), n ≥ 3)	Kd (Kv1.3; this study, screened at 100 nM, read-out: Kd Values Kv1.3 (symbol)) [nM]	Kd (hKv1.2; Hill fit of RCF vs toxin concentration, cumulative application, equilibrium block, pulses to +50 mV from -120 mV, n ≥ 3, read-out: Kd for Kv1.2) [nM]	Kd (Kv1.3; Hill fit of isochronal RCF (current at 4 ms), 15-ms pulses to +50 mV from -120 mV, n ≥ 3, read-out: Kd for Kv1.3) [nM]	time for onset of steady-state block and complete recovery, Kv1.3 (Kv1.3; 5, 15, 40, 100, 350 nM toxin)	reversibility of Kv1.3 block (Kv1.3; wash with toxin-free external solution)
CC[C@H](C)[C@H](NC(=O)[C@H](Cc1ccccc1)NC(=O)[C@@H](N)[C@@H](C)O)C(=O)N[C@@H](CC(N)=O)C(=O)N[C@H](C(=O)N[C@@H](CCCCN)C(=O)N[C@H]1CSSC[C@@H]2NC(=O)[C@H](CCCCN)NC(=O)[C@H](CCC(=O)O)NC(=O)CNC(=O)[C@H](C)NC(=O)[C@H](Cc3c[nH]cn3)NC(=O)[C@@H]3CCCN3C(=O)CNC(=O)[C@H](Cc3ccc(O)cc3)NC(=O)[C@H](CC(C)C)NC(=O)[C@H](CC(=O)O)NC(=O)[C@H](CCCCN)NC(=O)[C@@H]3CSSC[C@@H](C(=O)N[C@@H](Cc4ccc(O)cc4)C(=O)N[C@@H](CCCCN)C(=O)N[C@H](C(=O)O)C(C)C)NC(=O)[C@H](CCCCN)NC(=O)[C@H](CSSC[C@H](NC(=O)[C@H](CCC(N)=O)NC(=O)[C@H](CCCCN)NC(=O)[C@@H]4CCCN4C(=O)[C@H](CO)NC(=O)[C@H]([C@@H](C)O)NC1=O)C(=O)N[C@@H](CC(C)C)C(=O)N[C@@H](CCCCN)C(=O)N1CCC[C@H]1C(=O)N3)NC(=O)[C@H](CCCCN)NC(=O)CNC(=O)[C@H](CC(N)=O)NC(=O)[C@H](CCSC)NC2=O)C(C)C [CboK7] (H-TFINVKCTSPKQCLKPCKDLYGPHAGEKCMNGKCKCYKV-OH; disulfide 7-29, 13-34, 17-36)	1.3	0.8											
CC[C@H](C)[C@@H]1NC(=O)[C@@H]2CSSC[C@H](NC(=O)[C@H](C)NC(=O)[C@@H](NC(=O)[C@@H](N)CC(N)=O)C(C)C)C(=O)N[C@@H](C(C)C)C(=O)N[C@@H](Cc3c[nH]cn3)C(=O)N[C@@H](CCCNC(=N)N)C(=O)N[C@@H]([C@@H](C)O)C(=O)N[C@H]3CSSC[C@H](NC(=O)[C@H](CCCCN)NC(=O)[C@H](CCCNC(=N)N)NC(=O)[C@H](CC(N)=O)NC1=O)C(=O)N[C@@H](CC(N)=O)C(=O)N[C@H](C(=O)N[C@@H](Cc1ccc(O)cc1)C(=O)N1CCC[C@H]1C(=O)N[C@@H](Cc1c[nH]cn1)C(=O)O)CSSC[C@H](NC(=O)[C@H](CC(N)=O)NC(=O)[C@H](CO)NC(=O)[C@H](CC(=O)O)NC3=O)C(=O)N[C@@H](CCCCN)C(=O)N[C@@H](CCCNC(=N)N)C(=O)N[C@@H](CC(N)=O)C(=O)NCC(=O)N[C@@H](Cc1ccc(O)cc1)C(=O)N[C@@H](CCCCN)C(=O)N[C@@H](CO)C(=O)NCC(=O)N[C@@H](CCCCN)C(=O)N2 [CboK1] (H-NVACVHRTCDSNCKRNGYKSGKCINRKCNCYPH-OH; disulfide 4-23, 9-28, 13-30)			did not show any effect	> 100	totally insensitive; also recorded: did not show any effect	> 100	did not show any effect	less than 4%	> 100				
CC[C@H](C)[C@@H]1NC(=O)[C@@H]2CSSC[C@H](NC(=O)[C@H](CCCCN)NC(=O)[C@@H](NC(=O)[C@H](CC(N)=O)NC(=O)[C@@H](NC(=O)[C@@H](NC(=O)[C@@H](N)[C@@H](C)O)[C@@H](C)O)[C@@H](C)CC)C(C)C)C(=O)N[C@@H](CO)C(=O)N[C@@H](CC(C)C)C(=O)N3CCC[C@H]3C(=O)N[C@@H](CCC(N)=O)C(=O)N[C@@H](CCC(N)=O)C(=O)N[C@H]3CSSC[C@H](NC(=O)[C@H](CCCCN)NC(=O)CNC(=O)[C@H](CC(N)=O)NC1=O)C(=O)N[C@@H](CCCCN)C(=O)N[C@H](C(=O)N[C@@H](Cc1ccc(O)cc1)C(=O)N1CCC[C@H]1C(=O)O)CSSC[C@H](NC(=O)[C@@H]1CCCN1C(=O)[C@H](CCCNC(=N)N)NC(=O)[C@H](CC(C)C)NC3=O)C(=O)N[C@@H](CCCCN)C(=O)N[C@@H](CC(=O)O)C(=O)N[C@@H](CCCNC(=N)N)C(=O)N[C@@H](Cc1ccccc1)C(=O)NCC(=O)N[C@@H](CCC(N)=O)C(=O)N[C@@H](Cc1c[nH]cn1)C(=O)N[C@@H](C)C(=O)NCC(=O)NCC(=O)N[C@@H](CCCCN)C(=O)N2 [CboK6] (H-TTINVKCSLPQQCLRPCKDRFGQHAGGKCINGKCKCYP-OH; disulfide 7-29, 13-34, 17-36 (inferred); N-terminus and C-terminus assumed)	1.3	0.77	does not block	> 100						0.585	160		
CC[C@H](C)[C@H](NC(=O)[C@@H](N)[C@@H](C)O)C(=O)N[C@H](C(=O)N[C@@H](CC(N)=O)C(=O)N[C@H](C(=O)N[C@@H](CCCCN)C(=O)N[C@H]1CSSC[C@@H]2NC(=O)[C@H](CCCCN)NC(=O)[C@H](CCC(=O)O)NC(=O)CNC(=O)[C@H](C)NC(=O)[C@H](Cc3c[nH]cn3)NC(=O)[C@@H]3CCCN3C(=O)CNC(=O)[C@H](Cc3ccc(O)cc3)NC(=O)[C@H](CC(C)C)NC(=O)[C@H](CC(=O)O)NC(=O)[C@H](CCCCN)NC(=O)[C@@H]3CSSC[C@@H](C(=O)N[C@@H](Cc4ccc(O)cc4)C(=O)N[C@@H](CCCCN)C(=O)N[C@H](C(=O)O)C(C)C)NC(=O)[C@H](CCCCN)NC(=O)[C@H](CSSC[C@H](NC(=O)[C@H](CCC(N)=O)NC(=O)[C@H](CCCCN)NC(=O)[C@@H]4CCCN4C(=O)[C@H](CO)NC(=O)[C@H]([C@@H](C)O)NC1=O)C(=O)N[C@@H](CC(C)C)C(=O)N[C@@H](CCCCN)C(=O)N1CCC[C@H]1C(=O)N3)NC(=O)[C@H](CCCCN)NC(=O)CNC(=O)[C@H](CC(N)=O)NC(=O)[C@H](CCSC)NC2=O)C(C)C)[C@@H](C)CC [CboK3] (H-TIINVKCTSPKQCLKPCKDLYGPHAGEKCMNGKCKCYKV-OH; disulfide 7-29, 13-34, 17-36)	1.2	0.96										~ 1 min	fully reversible
